Results on five compounds are retold here after ChEMBL document CHEMBL1201862, “PubChem BioAssay data set” (2004).

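In this assay, cells in 96-well plates receive the compound at five concentrations for 48 hours. Endpoints are linearly interpolated between the surrounding concentrations. The concentration for 50% growth inhibition is given as GI50.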 Calls of active or inactive are those of the source. No stated cut-off is given here; in the data, active = GI50 up to about 1.1 µM and inactive = higher. Where a SMILES comes first, the peptide text is derived from it. The star is where a group is joined. Boc = CC(C)(C)OC(=O)*; OSu = O=C1CCC(=O)N1O* Where only a bound is given, the exact number is not on record here.

Test systems include OVCAR-5; MCF7; NCI-H23; BT-549; Hs-578T; HCC 2998; MDA-MB-435; RXF 393; EKVX; A549; SK-MEL-28; SN12C; Malme-3M; SNB-75; CAKI-1; UO-31; SK-MEL-2; KM12; ACHN; OVCAR-8.
Common to all, as to experiment: NCI anticancer screen, dose series, 48 h

For the compound `O=[N+]([O-])/C(Cl)=C(\NCCO)C(Cl)=C(Cl)Cl`, the GI50 in the test with OVCAR-5 is > 100 µM (inactive); with MCF7, 52 µM (inactive); with NCI-H23, 72.1 µM (inactive); with BT-549, > 79.8 µM (inactive); in the test with Hs-578T it was > 65.5 µM (inactive); with HCC 2998 it was > 100 µM (inactive). The GI50 in the test on MDA-MB-435 is 55.8 µM (inactive); in the test with RXF 393, 56.1 µM (inactive); with EKVX it was > 100 µM (inactive); in the test on A549 it was > 100 µM (inactive); with SK-MEL-28, > 85.7 µM (inactive); in the test with SN12C it was 43 µM (inactive). The GI50 in the test on Malme-3M was 32.5 µM (inactive); in the test on SNB-75 it was > 80.2 µM (inactive); in the test on CAKI-1, > 86.7 µM (inactive); with UO-31 it was > 74.5 µM (inactive); with SK-MEL-2 it was > 100 µM (inactive); in the test on KM12, > 89.1 µM (inactive). Also, the GI50 in the test on ACHN was 89.5 µM (inactive); in the test with OVCAR-8 it was 52.8 µM (inactive).
For `Cc1cccc(NC(=S)N/N=C(/c2ccccc2)c2ccccn2)c1`, the GI50 in the test on OVCAR-5 was 0.0266 µM (active); in the test on MCF7, < 0.0172 µM (active); with NCI-H23 it was < 0.0282 µM (active); in the test on BT-549, 2.5 µM (inactive); with Hs-578T, 9.02 µM (inactive); in the test with HCC 2998 it was 2.84 µM (inactive). For the same compound, the GI50 was 0.574 µM (active) with MDA-MB-435; 0.667 µM (active) in the test on RXF 393; 0.0885 µM (active) with EKVX; 0.22 µM (active) in the test with A549; 1.89 µM (inactive) in the test on SK-MEL-28; 0.359 µM (active) with SN12C. Moreover, the GI50 was 0.174 µM (active) in the test with Malme-3M; 0.991 µM (active) in the test on SNB-75; 0.249 µM (active) with CAKI-1; 0.385 µM (active) with UO-31; 2.49 µM (inactive) with SK-MEL-2; 0.0796 µM (active) in the test with KM12. Moreover, the GI50 was 0.044 µM (active) with ACHN and 0.038 µM (active) in the test with OVCAR-8.
`C1CN1c1nc(N2CC2)nc(N2CC2)n1`: the GI50 was 11.5 µM (inactive) in the test on OVCAR-5; 2.16 µM (inactive) in the test on MCF7; 2.73 µM (inactive) in the test with NCI-H23; 15.9 µM (inactive) with BT-549; 26.5 µM (inactive) with Hs-578T; 8.87 µM (inactive) in the test with HCC 2998. The GI50 in the test on MDA-MB-435 is 12.6 µM (inactive); in the test on RXF 393 it was 6.78 µM (inactive); in the test on EKVX, 19.5 µM (inactive); in the test on A549 it was 4.29 µM (inactive); in the test on SK-MEL-28 it was 14.3 µM (inactive); with SN12C it was 2.95 µM (inactive). Also, the GI50 with Malme-3M was 11.7 µM (inactive); in the test with SNB-75 it was 5.66 µM (inactive); in the test with CAKI-1, 2.19 µM (inactive); in the test with UO-31, 7.36 µM (inactive); in the test with SK-MEL-2 it was 17.7 µM (inactive); in the test on KM12, 16.2 µM (inactive). The results for the GI50 in the test with ACHN and in the test with OVCAR-8 were 0.944 µM (active) and 7.55 µM (inactive), respectively.
As for `N#CC(C#N)=C(N)/C(C#N)=C/c1cc(O)c(O)c(Br)c1`, the GI50 in the test with OVCAR-5 is > 43.6 µM (inactive); in the test on MCF7 it was 49.4 µM (inactive); with NCI-H23, > 100 µM (inactive); in the test with BT-549, > 100 µM (inactive); in the test on Hs-578T, 38.9 µM (inactive); in the test with HCC 2998, > 74 µM (inactive). The GI50 in the test on MDA-MB-435 is 78.5 µM (inactive); with RXF 393 it was > 100 µM (inactive); with EKVX it was 52.8 µM (inactive); with A549 it was 59.4 µM (inactive); in the test on SK-MEL-28, > 100 µM (inactive); with SN12C, > 69.3 µM (inactive). Also, the GI50 was 85.7 µM (inactive) with Malme-3M; 52.7 µM (inactive) with SNB-75; > 100 µM (inactive) with CAKI-1; 42.4 µM (inactive) in the test on UO-31; 90.6 µM (inactive) in the test with SK-MEL-2; 75.9 µM (inactive) with KM12. The GI50 in the test with ACHN is 77.1 µM (inactive); in the test with OVCAR-8 it was 48.1 µM (inactive).
Take `CC(NC(=O)C(NC(=O)OC(C)(C)C)C(C)C)C(=O)NCC(=O)ON1C(=O)CCC1=O` (stereo not drawn) (Boc-Val-Ala-Gly-OSu; configuration not given here): the GI50 was > 100 µM (inactive) in the test with OVCAR-5; > 100 µM (inactive) in the test on MCF7; > 100 µM (inactive) in the test on NCI-H23; > 100 µM (inactive) in the test with BT-549; > 10 µM (inactive) in the test on Hs-578T; > 100 µM (inactive) with HCC 2998. The GI50 with MDA-MB-435, with RXF 393, in the test on EKVX, in the test with A549, in the test on SK-MEL-28 and in the test on SN12C was > 100 µM (inactive) throughout. For the same compound, the GI50 with Malme-3M, with SNB-75, in the test with CAKI-1, in the test on UO-31, with SK-MEL-2 and in the test with KM12 was > 100 µM (inactive) each time. Moreover, the GI50 in the test with ACHN and in the test with OVCAR-8 was > 100 µM (inactive) in each case.
